Paper PMC7926352, “Synthesis, Characterization and In Vitro Evaluation of Novel 5-Ene-thiazolo[3,2-b][1,2,4]triazole-6(5H)-ones as Possible Anticancer Agents” (Molecules, 2021)
Like-named read-outs stand apart in the source and are kept apart here.

What was measured:
[1] = test system: phospholipase C-γ2 (PLC-γ2); set-up: method as in PMID 19303309; details: at 15 µM; cited from earlier work
[2] = test system: phospholipase C-γ2 (PLC-γ2); set-up: method as in PMID 19303309; details: at 15 µM; cited from earlier work; remark: listed apart in the source
[3] = test system: panel of approximately sixty human tumor cell lines; experiment: NCI-60 human tumor cell lines screen (SRB), full panel; type: cell-based; details: 10 μM; for activity at 10 µM: Homo sapiens, 60 cell lines assay in one dose, 48 h; for Positive Cytostatic Effect / Positive Cytotoxic Effect: one dose; for Positive Cytostatic Effect: ratio of number of cell lines with percent growth from 0 to 50 to total number of cell lines; for Positive Cytotoxic Effect: ratio of number of cell lines with percent growth of <0 to total number of cell lines
Procedure: Compounds 2a, 2c–f, 2h–l, 3, 5e, 5f were selected for antitumor activity which was performed according to the standard protocols of National Cancer Institute (NCI, Bethesda, MD, USA) Developmental Therapeutic Program (DTP). At the prescreening stage, the compounds were evaluated for antitumor activity at the concentration of 10 µM against a panel of approximately sixty cancer cell lines representing different types of cancer including leukemia, melanoma, lung, colon, CNS, ovarian, renal, prostate and breast cancers.
Among them, three compounds (2d, 2h, 2i) presented excellent cytotoxic and four derivatives (2d, 2h, 2i, 2k) cytostatic properties in one or more cell lines when applied at a concentration of 10 µM. […] The outcomes were calculated and presented in the form of three response parameters (GI50, TGI and LC50) for each cell line via growth percentage inhibition curves. […]
The primary anticancer assay was performed on a panel of approximately sixty human tumor cell lines derived from nine neoplastic diseases (leukemia, melanoma, lung, colon, CNS, ovarian, renal, prostate, and breast cancers), in accordance with the protocol of the National Cancer Institute Drug Evaluation Branch (Bethesda, MD, USA). Tested compounds were added to the culture at a single concentration (10^−5 M) and the cultures were incubated for 48 h. End-point determinations were made with a protein-binding dye, sulforhodamine B (SRB). Results for each tested compound were reported as the percentage of the growth of the treated cells when compared to the untreated control cells. The percentage of the growth was evaluated spectrophotometrically versus controls not treated with test agents. […] Using absorbance measurements [time zero (Tz), control growth in the absence of drug (C), and test growth in the presence of the drug (Ti)], the percentage growth was calculated for each drug concentration. Percentage growth inhibition was calculated as:[(Ti − Tz)/[…]] × 100(1) for concentrations for which Ti ≥ Tz, [(Ti − Tz)/Tz] × 100 for concentrations for which Ti < Tz. Dose-response parameters (GI50, TGI) were calculated for each compound. Growth inhibition of 50% (GI50) was calculated from [(Ti − Tz)/(C − Tz)] × 100 = 50, which is the drug concentration resulting in a 50% lower net protein increase in the treated cells (measured by SRB staining) as compared to the net protein increase seen in the control cells. The drug concentration resulting in total growth inhibition (TGI) was calculated from Ti = Tz. Values were calculated for each of these parameters if the level of activity was reached; however, if the effect was not reached or was excessive, the value for that parameter was expressed as more or less than the maximum or minimum concentration tested. The lowest values were obtained with the most sensitive cell lines. Compounds having GI50 values ≤ 100 μM were declared to be active. The selectivity index (SI) calculated by dividing the full panel MG_MID (full-panel mean-graph midpoint) (μM) of the compounds 2h and 2i by their individual subpanel MG_MID of a cell line (μM) was considered as a measure of compounds’ selectivity. Ratios between 3 and 6 mean moderate selectivity, ratios greater than 6 indicate high selectivity toward the corresponding cell line, while compounds not meeting either of these criteria are rated nonselective.

Compound	PLC-γ2 inhibition, calcium release cell-based assay [1]	PLC-γ2 inhibition, biochemical assay [2]	activity at 10 µM ([3]; read-out: Mean Growth, %) [%]	activity at 10 µM ([3]; read-out: Range of Growth, %) [%]	Positive Cytostatic Effect [3]	Positive Cytotoxic Effect [3]	melting point [°C]
O=c1/c(=C/c2ccccc2[N+](=O)[O-])sc2nc(-c3ccc(F)cc3)nn12 [CCT-196700]	satisfactory activity parameters	satisfactory activity parameters	–	–	–	–	–
O=c1/c(=C/c2ccccc2F)sc2ncnn12 [Compound 2a, (Z)-5-(2-Fluorobenzylidene)thiazolo[3,2-b][1,2,4]triazol-6(5H)-one]	–	–	90	52.8 to 123	0/59	0/59	–
COc1ccccc1/C=c1\sc2ncnn2c1=O [Compound 2b, (Z)-5-(2-Methoxybenzylidene)thiazolo[3,2-b][1,2,4]triazol-6(5H)-one]	–	–	–	–	–	–	196 to 198
C=CCOc1ccccc1/C=c1\sc2ncnn2c1=O [Compound 2c, (Z)-5-(2-(Allyloxy)benzylidene)thiazolo[3,2-b][1,2,4]triazol-6(5H)-one]	–	–	103	77.1 to 146	0/59	0/59	–
CC(=O)Oc1ccc(/C=c2\sc3ncnn3c2=O)cc1 [Compound 2d, (Z)-4-((6-Oxothiazolo[3,2-b][1,2,4]triazol-5(6H)-ylidene)methyl)phenyl acetate]	–	–	99.7	-73.9 to 148	2/58	3/58	–
CCN(CC)c1ccc(/C=c2\sc3ncnn3c2=O)cc1 [Compound 2e, (Z)-5-(4-(Diethylamino)benzylidene)thiazolo[3,2-b][1,2,4]triazol-6(5H)-one]	–	–	102	61.9 to 134	0/58	0/58	–
COc1ccc(/C=c2\sc3ncnn3c2=O)cc1OC [Compound 2f, (Z)-5-(3,4-Dimethoxybenzylidene)thiazolo[3,2-b][1,2,4]triazol-6(5H)-one]	–	–	108	86.7 to 262	0/57	0/57	–
Cc1cccc(NC(=O)COc2ccc(Cl)cc2/C=c2\sc3ncnn3c2=O)c1 [Compound 2g, (Z)-2-(4-Chloro-2-((6-oxothiazolo[3,2-b][1,2,4]triazol-5(6H)-ylidene)methyl)phenoxy)-N-(m-tolyl)acetamide]	–	–	–	–	–	–	260 to 262
O=c1/c(=C/c2ccco2)sc2ncnn12 [Compound 2j, (Z)-5-(Furan-2-ylmethylene)thiazolo[3,2-b][1,2,4]triazol-6(5H)-one]	–	–	106	82.4 to 136	0/56	0/56	–
O=c1c(=Cc2cccs2)sc2ncnn12 [Compound 2k, (Z)-5-(Thiophen-2-y-lmethylene)thiazolo[3,2-b][1,2,4]triazol-6(5H)-one]	–	–	111	25.2 to 180	1/56	0/56	–
CC(=O)n1cc(/C=c2\sc3ncnn3c2=O)c2ccccc21 [Compound 2l, (Z)-5-((1-Acetyl-1H-indol-3-yl)methylene)thiazolo[3,2-b][1,2,4]triazol-6(5H)-one]	–	–	105	66.9 to 141	0/59	0/59	–
O=C(O)CSc1nnc[nH]1 [Compound 3, 2-((1H-1,2,4-Triazol-3-yl)thio)acetic Acid]	–	–	97.2	74.8 to 122	0/59	0/59	–
O=c1/c(=C/Nc2cccc(O)c2)sc2ncnn12 [Compound 5e, (E/Z)-5-(((3-Hydroxyphenyl)amino)methylene)thiazolo[3,2-b][1,2,4]triazol-6(5H)-one]	–	–	101	80.3 to 138	0/59	0/59	–
O=c1/c(=C/Nc2ccc(Cl)cc2)sc2ncnn12 [Compound 5f, (E/Z)-5-(((4-Chlorophenyl)amino)methylene)thiazolo[3,2-b][1,2,4]triazol-6(5H)-one]	–	–	93.6	54.4 to 112	0/59	0/59	–
O=c1/c(=C/N2CCc3ccccc32)sc2ncnn12 [Compound 6a, (Z)-5-(Indolin-1-ylmethylene)thiazolo[3,2-b][1,2,4]triazol-6(5H)-one]	–	–	–	–	–	–	> 250
O=c1/c(=C/N2CCCCC2)sc2ncnn12 [Compound 6b, (Z)-5-(Piperidin-1-ylmethylene)thiazolo[3,2-b][1,2,4]triazol-6(5H)-one]	–	–	–	–	–	–	190 to 192
O=c1/c(=C/N2CCN(CCO)CC2)sc2ncnn12 [Compound 6c, (Z)-5-((4-(2-Hydroxyethyl)piperazin-1-yl)methylene)thiazolo[3,2-b][1,2,4]triazol-6(5H)-one]	–	–	–	–	–	–	189 to 192
CCOC(=O)N1CCN(/C=c2\sc3ncnn3c2=O)CC1 [Compound 6d, Ethyl(Z)-4-((6-oxothiazolo[3,2-b][1,2,4]triazol-5(6H)-ylidene)methyl)piperazine-1-carboxylate]	–	–	–	–	–	–	204 to 206
